Measurements taken from patent US20250277793A1, “COMPOSITIONS AND METHODS FOR CANCER DIAGNOSIS” (AOA Dx, priority 2020, published 2025).
“And” between values parts separate entries of the source, which are not always exact repeats. Equal entries are not always repeated.

Columns and labels:
[1] = Water solubility of intermediate carbohydrates; assay type: physicochemical; details: read-out: water soluble
Method: p-Aminophenylether-b-D-lactopyranoside (AP-Lac, from Toronto Research Chemicals) was used to enzymatically synthesize water soluble (>20 mg/ml) AP-GD2 and AP-GD3 intermediate carbohydrates. The synthesis of AP-GD2 included […] of AP-GD3 (4 mM), […] of UDP-GalNAc (5.4 mM), and 10.5 units of CgtA (construct CJL-30), 10 mM MnCl2 and 24 mM Hepes pH 7.0 in a final volume of 55 ml. The reaction mixture was incubated at 37° C. for 6.5 hr. Insoluble material was removed by centrifugation at 27,000 g for 15 min and the enzyme was removed by ultrafiltration using a 10 kDa membrane cut off. The filtrate was loaded on SepPak C18 5 g column (waters Corp) and the product was eluted with water while unidentified contaminants remained in the column. The product was further purified by anion exchange chromatography on HiTrapQ (GE Healthcare) using a gradient of 0-0.3 M NH4HCO3 and by size exclusion chromatography on a Superdex Peptide 10/300 GL column (GE Healthcare). The measured molecular weights of AP-GD2 (1,218 g/mol) and AP-GD3 (927 g/mol) correspond to expected values. Structures were verified by 1D and 2D NMR spectroscopy and mass spectrometry (EI-MS). […]

anti-GD2 mAbs = assay: Direct binding ELISA, GD2 versions with anti-GD2 antibody; parameters: species or system mouse; details: antigen immobilized 10 ng/well, mAb 7 nM final; for OD(450 nm): individual replicate wells; for OD(450 nm) Average: mean of 3
Method: (§1) Native gangliosides (GD2 or GD3, Control), Tria-tri-GD2, Tria-tri-GD3, PAMAM-GD2, PAMAM-GD3, or the monomeric precursors AP-GD2 or AP-GD3 were immobilized onto polystyrene Corning Strip Well 96-well plates (10 ng/well). After bocking all wells with albumin (BSA), the wells were reacted for binding by anti-GD2 or […] (7 nM final) or with serum from mice vaccinated with PAMAM-GD2 (1:75 dilution). Secondary antibody used was horseradish peroxidase (HRP)-conjugated anti-mouse IgG (Sigma). BG=background control.

[2] = tested on: serum from mice vaccinated with PAMAM-GD2; assay: Direct binding ELISA, GD2 versions with vaccinated mouse sera; details: antigen 10 ng/well, serum 1:75 dilution; for OD(450 nm): individual replicate wells; for OD(450 nm) Average: mean of 3
Method: as §1

anti-GD3 mAbs = assay: Direct binding ELISA, GD3 versions with anti-GD3 antibody; parameters: species or system mouse; details: antigen immobilized 10 ng/well, mAb 7 nM final; for OD(450 nm): individual replicate wells; for OD(450 nm) Average: mean of 3
Method: as §1

[3] = tested on: antisera raised against PAMAM-GD3; assay: Direct binding ELISA, GD3 versions with vaccinated mouse sera; parameters: species or system mice; details: antigen 10 ng/well, serum 1:75 dilution; for OD(450 nm): individual replicate wells; for OD(450 nm) Average: mean of 3

Compound	solubility [1]	OD(450 nm) (anti-GD2 mAbs)	OD(450 nm) Average (anti-GD2 mAbs)	OD(450 nm) [2]	OD(450 nm) Average [2]	OD(450 nm) (anti-GD3 mAbs)	OD(450 nm) Average (anti-GD3 mAbs)	OD(450 nm) [3]	OD(450 nm) Average [3]	OD(450 nm) (anti-GD2 mAbs; listed as Control)
CC(=O)NC1C(OC2C(CO)OC(OC3C(CO)OC(Oc4ccc(N)cc4)C(O)C3O)C(O)C2OC2(C(=O)O)CC(O)C(NC(C)=O)C([C@H](O)C(CO)OC3(C(=O)O)CC(O)C(NC(C)=O)C([C@H](O)[C@H](O)CO)O3)O2)OC(CO)C(O)C1O (stereo partly drawn) [AP-GD2, p-amino phenyl ether-GD2]	> 20 mg/mL	0.483 and 0.558 and 0.568	0.5363	0.694 and 0.587 and 0.635	0.6387	–	–	–	–	–
CC(=O)NC1C(O)CC(OC2C(O)C(CO)OC(OC3C(CO)OC(Oc4ccc(N)cc4)C(O)C3O)C2O)(C(=O)O)OC1[C@H](O)C(CO)OC1(C(=O)O)CC(O)C(NC(C)=O)C([C@H](O)[C@H](O)CO)O1 (stereo partly drawn) [AP-GD3, p-amino phenyl ether-GD3]	> 20 mg/mL	–	–	–	–	0.483 and 0.558 and 0.568	0.5363	0.483 and 0.558 and 0.568	0.5363	–
CC/C=C/C(O)C(CO[C@@H]1OC(CO)[C@@H](O[C@@H]2OC(CO)[C@H](O[C@@H]3OC(CO)[C@H](O)C(O)C3NC(C)=O)C(O[C@]3(C(=O)O)CC(O)[C@@H](NC(C)=O)C([C@H](O)[C@@H](CO)O[C@]4(C(=O)O)CC(O)[C@@H](NC(C)=O)C([C@H](O)[C@H](O)CO)O4)O3)C2O)C(O)C1O)NC(=O)CC (stereo partly drawn) [GD2, reference compound]	–	–	1.105	1.319 and 1.23 and 1.128	1.226	–	–	–	–	1.174 and 1.069 and 1.072
CC/C=C/C(O)C(CO[C@@H]1OC(CO)[C@@H](O[C@@H]2OC(CO)[C@H](O)C(O[C@]3(C(=O)O)CC(O)[C@@H](NC(C)=O)C([C@H](O)[C@@H](CO)O[C@]4(C(=O)O)CC(O)[C@@H](NC(C)=O)C([C@H](O)[C@H](O)CO)O4)O3)C2O)C(O)C1O)NC(=O)CC (stereo partly drawn) [GD3, reference compound]	–	–	–	–	–	0.602 and 0.465 and 0.493	0.52	0.646 and 0.534 and 0.555	0.5783	–
